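All cell lines were grown in 96-well plates and treated with compound for 48 hours. TGI is the concentration that stops growth completely.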
What was measured:
Assay in all cases: growth of human tumour cells (NCI), 48 h
786-0 renal = tested on: 786-0 renal
A498 renal = tested on: A498 renal
A549 NSCLC = tested on: A549 NSCLC
ACHN renal = tested on: ACHN renal
BT-549 breast = tested on: BT-549 breast
CAKI-1 renal = tested on: CAKI-1 renal
CCRF-CEM leukemia = tested on: CCRF-CEM leukemia
COLO 205 colon = tested on: COLO 205 colon
DU-145 prostate = tested on: DU-145 prostate
EKVX NSCLC = tested on: EKVX NSCLC
HCC-2998 colon = tested on: HCC-2998 colon
HCT-116 colon = tested on: HCT-116 colon
HCT-15 colon = tested on: HCT-15 colon
HL-60(TB) leukemia = tested on: HL-60(TB) leukemia
HOP-62 NSCLC = tested on: HOP-62 NSCLC
HOP-92 NSCLC = tested on: HOP-92 NSCLC
HS 578T breast = tested on: HS 578T breast
HT29 colon = tested on: HT29 colon
IGROV1 ovarian = tested on: IGROV1 ovarian
K-562 leukemia = tested on: K-562 leukemia
KM12 colon = tested on: KM12 colon
LOX IMVI melanoma = tested on: LOX IMVI melanoma
M14 melanoma = tested on: M14 melanoma
MALME-3M melanoma = tested on: MALME-3M melanoma
MCF7 breast = tested on: MCF7 breast
MDA-MB-231 breast = tested on: MDA-MB-231 breast
MDA-MB-435 = tested on: MDA-MB-435
MDA-N = tested on: MDA-N
MOLT-4 leukemia = tested on: MOLT-4 leukemia
NCI-H226 lung = tested on: NCI-H226 lung
NCI-H23 lung = tested on: NCI-H23 lung
NCI-H460 lung = tested on: NCI-H460 lung
NCI-H522 lung = tested on: NCI-H522 lung
NCI/ADR-RES ovarian = tested on: NCI/ADR-RES ovarian
OVCAR-3 ovarian = tested on: OVCAR-3 ovarian
OVCAR-4 ovarian = tested on: OVCAR-4 ovarian
OVCAR-5 ovarian = tested on: OVCAR-5 ovarian
OVCAR-8 ovarian = tested on: OVCAR-8 ovarian
PC-3 prostate = tested on: PC-3 prostate
RPMI-8226 leukemia = tested on: RPMI-8226 leukemia
RXF 393 renal = tested on: RXF 393 renal
SF-268 CNS = tested on: SF-268 CNS
SF-295 CNS = tested on: SF-295 CNS
SF-539 CNS = tested on: SF-539 CNS
SK-MEL-2 melanoma = tested on: SK-MEL-2 melanoma
SK-MEL-28 melanoma = tested on: SK-MEL-28 melanoma
SK-MEL-5 melanoma = tested on: SK-MEL-5 melanoma
SK-OV-3 ovarian = tested on: SK-OV-3 ovarian
SN12C renal = tested on: SN12C renal
SNB-19 CNS = tested on: SNB-19 CNS
SNB-75 CNS = tested on: SNB-75 CNS
SR leukemia = tested on: SR leukemia
SW-620 colon = tested on: SW-620 colon
T-47D breast = tested on: T-47D breast
TK-10 renal = tested on: TK-10 renal
U251 CNS = tested on: U251 CNS
UACC-257 melanoma = tested on: UACC-257 melanoma
UACC-62 melanoma = tested on: UACC-62 melanoma
UO-31 renal = tested on: UO-31 renal

COC(=O)c1oc([N+](=O)[O-])c(Cl)c1Cl gave a TGI (786-0 renal) of 16.4 µM, a TGI (A498 renal) of 23 µM and a TGI (A549 NSCLC) of 37.7 µM. For the same compound, the TGI (ACHN renal) was 15.6 µM, the TGI (BT-549 breast) was 14.8 µM and the TGI (CAKI-1 renal) was 7.4 µM. The TGI (CCRF-CEM leukemia) was 7.35 µM, the TGI (COLO 205 colon) was 8.61 µM and the TGI (DU-145 prostate) was 32.5 µM. For the same compound, the TGI (EKVX NSCLC) was 36.8 µM, the TGI (HCC-2998 colon) was 35 µM and the TGI (HCT-116 colon) was 12.9 µM. For the same compound, the TGI (HCT-15 colon) was 18.2 µM, the TGI (HL-60(TB) leukemia) was 3.24 µM and the TGI (HOP-62 NSCLC) was 17 µM. It also gave a TGI (HOP-92 NSCLC) of 39.3 µM, a TGI (HS 578T breast) of 29.3 µM and a TGI (HT29 colon) of 41.4 µM. The TGI (IGROV1 ovarian) was 14.8 µM, the TGI (K-562 leukemia) was 6.48 µM and the TGI (KM12 colon) was 14.5 µM. For the same compound, the TGI (LOX IMVI melanoma) was 13.7 µM, the TGI (M14 melanoma) was 13.8 µM and the TGI (MALME-3M melanoma) was 14.3 µM. The TGI (MCF7 breast) was 6.27 µM, the TGI (MDA-MB-231 breast) was 14 µM and the TGI (MDA-MB-435) was 14.6 µM. It also gave a TGI (MDA-N) of 14.9 µM, a TGI (MOLT-4 leukemia) of 4.93 µM and a TGI (NCI-H226 lung) of 42.9 µM. The TGI (NCI-H23 lung) was 17.4 µM, the TGI (NCI-H460 lung) was 34.6 µM and the TGI (NCI-H522 lung) was 3.33 µM. The TGI (NCI/ADR-RES ovarian) was 36.5 µM, the TGI (OVCAR-3 ovarian) was 11.4 µM and the TGI (OVCAR-4 ovarian) was 17.4 µM. For the same compound, the TGI (OVCAR-5 ovarian) was 14.8 µM, the TGI (OVCAR-8 ovarian) was 30.4 µM and the TGI (PC-3 prostate) was 15.1 µM. The TGI (RPMI-8226 leukemia) was 15.8 µM, the TGI (RXF 393 renal) was 28 µM and the TGI (SF-268 CNS) was 17.5 µM. It also gave a TGI (SF-295 CNS) of 24.7 µM, a TGI (SF-539 CNS) of 14.4 µM and a TGI (SK-MEL-2 melanoma) of 31.6 µM. It also gave a TGI (SK-MEL-28 melanoma) of 15.8 µM, a TGI (SK-MEL-5 melanoma) of 17.7 µM and a TGI (SK-OV-3 ovarian) of 33.2 µM. For the same compound, the TGI (SN12C renal) was 14.2 µM, the TGI (SNB-19 CNS) was 35.4 µM and the TGI (SNB-75 CNS) was 20.8 µM. The TGI (SR leukemia) was 4.89 µM, the TGI (SW-620 colon) was 10 µM and the TGI (T-47D breast) was 13.1 µM. The TGI (TK-10 renal) was 14 µM, the TGI (U251 CNS) was 15.5 µM and the TGI (UACC-257 melanoma) was 15.2 µM. For the same compound, the TGI (UACC-62 melanoma) was 15.7 µM and the TGI (UO-31 renal) was 14.5 µM.
Work on C=C(Cl)C(Cl)(CBr)CCCC(C)(C)Cl (configuration not stated) yielded a TGI (786-0 renal) of 18 µM, a TGI (A498 renal) of 33.9 µM and a TGI (A549 NSCLC) of 32.1 µM. The TGI (ACHN renal) was 19.6 µM, the TGI (BT-549 breast) was > 100 µM and the TGI (CAKI-1 renal) was 3.8 µM. The TGI (CCRF-CEM leukemia) was > 62.3 µM, the TGI (COLO 205 colon) was 20.8 µM and the TGI (DU-145 prostate) was 23.5 µM. It also gave a TGI (EKVX NSCLC) of 32.6 µM, a TGI (HCC-2998 colon) of 29.5 µM and a TGI (HCT-116 colon) of 30.8 µM. It also gave a TGI (HCT-15 colon) of 70.8 µM, a TGI (HL-60(TB) leukemia) of 3.22 µM and a TGI (HOP-62 NSCLC) of 9.16 µM. It also gave a TGI (HOP-92 NSCLC) of 6.33 µM, a TGI (HS 578T breast) of 12.7 µM and a TGI (HT29 colon) of 4.28 µM. For the same compound, the TGI (IGROV1 ovarian) was > 75.3 µM, the TGI (K-562 leukemia) was > 66.8 µM and the TGI (KM12 colon) was 3.6 µM. The TGI (LOX IMVI melanoma) was 40.9 µM, the TGI (M14 melanoma) was > 100 µM and the TGI (MALME-3M melanoma) was > 55.1 µM. For the same compound, the TGI (MCF7 breast) was 20.2 µM, the TGI (MDA-MB-231 breast) was > 59 µM and the TGI (MDA-MB-435) was > 73.3 µM. The TGI (MDA-N) was > 79.5 µM, the TGI (MOLT-4 leukemia) was > 100 µM and the TGI (NCI-H226 lung) was > 100 µM. The TGI (NCI-H23 lung) was > 100 µM, the TGI (NCI-H460 lung) was 17.7 µM and the TGI (NCI-H522 lung) was 28.1 µM. For the same compound, the TGI (NCI/ADR-RES ovarian) was > 74.1 µM, the TGI (OVCAR-3 ovarian) was 6.51 µM and the TGI (OVCAR-4 ovarian) was 17 µM. For the same compound, the TGI (OVCAR-5 ovarian) was 33 µM, the TGI (OVCAR-8 ovarian) was 52.6 µM and the TGI (PC-3 prostate) was 9.36 µM. The TGI (RPMI-8226 leukemia) was 4.03 µM, the TGI (RXF 393 renal) was > 100 µM and the TGI (SF-268 CNS) was 38.3 µM. For the same compound, the TGI (SF-295 CNS) was 19.8 µM, the TGI (SF-539 CNS) was 4.93 µM and the TGI (SK-MEL-2 melanoma) was 32.3 µM. The TGI (SK-MEL-28 melanoma) was 25.4 µM, the TGI (SK-MEL-5 melanoma) was > 90.8 µM and the TGI (SK-OV-3 ovarian) was > 100 µM. The TGI (SN12C renal) was > 100 µM, the TGI (SNB-19 CNS) was 30.1 µM and the TGI (SNB-75 CNS) was 37.6 µM. The TGI (SR leukemia) was > 100 µM, the TGI (SW-620 colon) was 41.4 µM and the TGI (T-47D breast) was 4.15 µM. The TGI (TK-10 renal) was 4.54 µM, the TGI (U251 CNS) was 4.16 µM and the TGI (UACC-257 melanoma) was 13.8 µM. It also gave a TGI (UACC-62 melanoma) of 42.3 µM and a TGI (UO-31 renal) of 29.3 µM.
Work on C=C1CC2(CC(c3ccccc3OC)OC(c3ccccc3OC)C2)OC1=O (configuration not stated) yielded a TGI (786-0 renal) of 3.01 µM, a TGI (A498 renal) of 12.1 µM and a TGI (A549 NSCLC) of 11.2 µM. It also gave a TGI (ACHN renal) of 5.41 µM, a TGI (BT-549 breast) of 3.12 µM and a TGI (CAKI-1 renal) of 7.13 µM. It also gave a TGI (CCRF-CEM leukemia) of 4.47 µM, a TGI (COLO 205 colon) of 4.06 µM and a TGI (DU-145 prostate) of 20.2 µM. The TGI (EKVX NSCLC) was 27.7 µM, the TGI (HCC-2998 colon) was 5.92 µM and the TGI (HCT-116 colon) was 3.3 µM. For the same compound, the TGI (HCT-15 colon) was 4.5 µM, the TGI (HL-60(TB) leukemia) was 3.51 µM and the TGI (HOP-62 NSCLC) was 26.8 µM. It also gave a TGI (HOP-92 NSCLC) of 3.09 µM, a TGI (HS 578T breast) of 4.9 µM and a TGI (HT29 colon) of 4.32 µM. For the same compound, the TGI (IGROV1 ovarian) was 3.37 µM, the TGI (K-562 leukemia) was 5.32 µM and the TGI (KM12 colon) was 6.65 µM. For the same compound, the TGI (LOX IMVI melanoma) was 2.98 µM, the TGI (M14 melanoma) was 3.35 µM and the TGI (MALME-3M melanoma) was 3.31 µM. It also gave a TGI (MCF7 breast) of 3.32 µM, a TGI (MDA-MB-231 breast) of 3.45 µM and a TGI (MDA-MB-435) of 3.56 µM. It also gave a TGI (MDA-N) of 3.44 µM, a TGI (MOLT-4 leukemia) of 5.52 µM and a TGI (NCI-H226 lung) of 19.4 µM. For the same compound, the TGI (NCI-H23 lung) was 4.62 µM, the TGI (NCI-H460 lung) was 17.7 µM and the TGI (NCI-H522 lung) was 2.98 µM. For the same compound, the TGI (NCI/ADR-RES ovarian) was 7.73 µM, the TGI (OVCAR-3 ovarian) was 3.7 µM and the TGI (OVCAR-4 ovarian) was 11 µM. The TGI (OVCAR-5 ovarian) was 18.6 µM, the TGI (OVCAR-8 ovarian) was 3.56 µM and the TGI (PC-3 prostate) was 4.33 µM. It also gave a TGI (RPMI-8226 leukemia) of 1.45 µM, a TGI (RXF 393 renal) of 3.31 µM and a TGI (SF-268 CNS) of 6.41 µM. For the same compound, the TGI (SF-295 CNS) was 14.4 µM, the TGI (SF-539 CNS) was 4.95 µM and the TGI (SK-MEL-2 melanoma) was 3.45 µM. For the same compound, the TGI (SK-MEL-28 melanoma) was 2.17 µM, the TGI (SK-MEL-5 melanoma) was 7.05 µM and the TGI (SK-OV-3 ovarian) was 25.5 µM. The TGI (SN12C renal) was 4.05 µM, the TGI (SNB-19 CNS) was 14 µM and the TGI (SNB-75 CNS) was 9.09 µM. For the same compound, the TGI (SR leukemia) was 4.92 µM, the TGI (SW-620 colon) was 4.03 µM and the TGI (T-47D breast) was 3.4 µM. For the same compound, the TGI (TK-10 renal) was 4.31 µM, the TGI (U251 CNS) was 13.6 µM and the TGI (UACC-257 melanoma) was 4.23 µM. For the same compound, the TGI (UACC-62 melanoma) was 4.26 µM and the TGI (UO-31 renal) was 2.85 µM.
